Data on 68 molecules can be found in patent publication US12295396B2, “Antagonists of T2R54 and compositions and uses thereof” (Firmenich Incorporated, priority 2018, dated 2025).

This assay concerns the target T1, hT2R54 (Homo sapiens, UniProt P59534).
T1 construct: expressed in transfected cells; it overexpresses a promiscuous G protein
T1 sequence (P59534 1-338): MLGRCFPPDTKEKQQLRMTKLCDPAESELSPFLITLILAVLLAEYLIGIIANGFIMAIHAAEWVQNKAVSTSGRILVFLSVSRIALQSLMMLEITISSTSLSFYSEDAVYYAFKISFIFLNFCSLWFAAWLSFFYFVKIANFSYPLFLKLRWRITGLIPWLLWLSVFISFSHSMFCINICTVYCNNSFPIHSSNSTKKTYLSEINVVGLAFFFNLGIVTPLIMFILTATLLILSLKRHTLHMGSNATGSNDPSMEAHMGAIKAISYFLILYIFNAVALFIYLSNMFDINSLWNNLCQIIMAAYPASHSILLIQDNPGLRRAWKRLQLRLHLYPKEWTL
Description: Cell-based assay for measuring hT2R54 inhibition (FLIPR calcium, Fluo4AM, acetaminophen as bitter agonist). The following applies: Table 2; cells stably expressing hT2R54 and a promiscuous G protein; read-out: hT2R54 IC50. A digest of the protocol:
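Cells stably co-expressing hT2R54 and a promiscuous G protein were loaded with Fluo4AM and given acetaminophen dose series, alone or with fixed concentrations of test compound. On FLIPR, baseline was recorded for 10 s and fluorescence for 3 min after addition. IC50 is the concentration halving the acetaminophen-alone response.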

For `CC(=O)c1cc2c(cc1NC(=O)CN1CCN(C(=O)c3cc(C)no3)CC1)OCO2` [compound 293], the IC50 stood at 8 nM. Turning to `COCc1cc(C(=O)N2CCN(CC(=O)Nc3cc4c(cc3C(C)=O)OCO4)CC2)no1` [compound 294], the IC50 was 70 nM. Take `COCc1nc(C(=O)N2CCN(CC(=O)Nc3cc4c(cc3C(C)=O)OCO4)CC2)cs1` [compound 295]: the IC50 turned out to be 20 nM.

As for `COCc1nc(C(=O)N2CCN(CC(=O)Nc3cc4c(cc3C(C)=O)OCO4)CC2)co1` [compound 296], the IC50 is 53 nM. Under `CC(=O)c1cc2c(cc1NC(=O)CN1CCN(C(=O)c3coc(C)n3)CC1)OCO2` [compound 297] stands 23 nM; under `CC(=O)c1cc2c(cc1NC(=O)CN1CCN(C(=O)c3conc3C)CC1)OCO2` [compound 298], 91 nM; under `CC(=O)c1cc2c(cc1NC(=O)CN1CCN(C(=O)c3ncoc3C)CC1)OCO2` [compound 299], 58 nM. Under `CC(=O)c1cc2c(cc1NC(=O)CN1CCN(C(=O)c3cc(C)on3)CC1)OCO2` [compound 300] stands 40 nM; under `CC(=O)c1cc2c(cc1NC(=O)CN1CCN(C(=O)c3ncc[nH]3)CC1)OCO2` [compound 301], 20 nM; under `CC(=O)c1cc2c(cc1NC(=O)CN1CCN(C(=O)c3cn[nH]c3)CC1)OCO2` [compound 302], 800 nM. Regarding `CC(=O)c1cc2c(cc1NC(=O)CN1CCN(C(=O)c3c[nH]nn3)CC1)OCO2` [compound 303], the 50% inhibitory concentration (IC50) is 60 nM.

With `CC(=O)c1cc2c(cc1NC(=O)CN1CCN(C(=O)c3ncn[nH]3)CC1)OCO2` [compound 304], the IC50 came to 80 nM. Under `CC(=O)c1cc2c(cc1NC(=O)CN1CCN(C(=O)c3nccn3C)CC1)OCO2` [compound 305] stands 31 nM. Under `COc1cc2c(cc1NC(=O)CN1CCN(C(=O)c3nc(C)c[nH]3)CC1)OCO2` [compound 306] stands 77 nM. For `CC(=O)c1cc2c(cc1NC(=O)CN1CCN(C(=O)c3n[nH]cc3C)CC1)OCO2` [compound 307] the value was 90 nM; for `CC(=O)c1cc2c(cc1NC(=O)CN1CCN(C(=O)c3nc(C)c[nH]3)CC1)OCO2` [compound 308], 9 nM.

Take `CC(=O)c1cc2c(cc1NC(=O)CN1CCN(C(=O)c3c[nH]c(C)n3)CC1)OCO2` [compound 309]: the IC50 came to 200 nM. Take `CC(=O)c1cc2c(cc1NC(=O)CN1CCN(C(=S)Nc3ccccc3)CC1)OCO2` [compound 310]: the IC50 is 800 nM. For `COCC(=O)N1CCN(CC(=O)Nc2cc3c(cc2C(=O)OC)OCO3)CC1` [compound 311] the value was 82 nM; for `COCCC(=O)N1CCN(CC(=O)Nc2cc3c(cc2C(=O)OC)OCO3)CC1` [compound 312], 157 nM.

`CC(=O)c1cc2c(cc1NC(=O)CN1CCN(C(=O)[C@H]3CCC(=O)O3)CC1)OCO2` [compound 313]: the IC50 stood at 60 nM. Consider `CC(=O)c1cc2c(cc1NC(=O)CN1CCN(C(=O)[C@@H]3CCCO3)CC1)OCO2` [compound 314], for which the IC50 was 60 nM. For `CC(=O)c1cc2c(cc1NC(=O)CN1CCN(C(=O)[C@H]3CCCO3)CC1)OCO2` [compound 315] the value was 130 nM.

`CC(=O)c1cc2c(cc1NC(=O)C(C)N1CCN(C(=O)[C@@H]3CCCO3)CC1)OCO2` (some centres unmarked) [compound 316]: the IC50 was 80 nM. Turning to `CC(=O)c1cc2c(cc1NC(=O)C(C)N1CCN(C(=O)[C@H]3CCCO3)CC1)OCO2` (some centres unmarked) [compound 317], the IC50 came to 200 nM. Consider `CC(=O)c1cc2c(cc1NC(=O)C(C)N1CCN(C(=O)C3CCCO3)CC1)OCO2` (centres unmarked) [compound 318], for which the IC50 amounted to 60 nM. Under `CC(=O)c1cc2c(cc1NC(=O)C(C)(C)N1CCN(C(=O)C3CCCO3)CC1)OCO2` (centres unmarked) [compound 319] stands 1000 nM; under `COCC(C(=O)Nc1cc2c(cc1C(C)=O)OCO2)N1CCN(C(=O)[C@H]2CCCO2)CC1` (some centres unmarked) [compound 320], 1600 nM. For `CC(=O)c1cc2c(cc1NC(=O)CN1CCN(C(=O)C3CCN(C)C3)CC1)OCO2` (centres unmarked) [compound 321] the value was 1000 nM; for `CC(=O)c1cc2c(cc1NC(=O)CN1CCN(C(=O)CC3CCCO3)CC1)OCO2` (centres unmarked) [compound 322], 70 nM. For `CC(=O)c1cc2c(cc1NC(=O)CN1CCN(C(=O)CC3CCOC3)CC1)OCO2` (centres unmarked) [compound 323] the value was 200 nM.

As to `CC(=O)c1cc2c(cc1NC(=O)CN1CCN(C(=O)Cc3ccoc3)CC1)OCO2` [compound 324], the IC50 was determined as 80 nM. Under `COCc1ccc(C(=O)N2CCN(CC(=O)Nc3cc4c(cc3C(C)=O)OCCO4)CC2)cc1` [compound 325] stands 45 nM; under `CC(=O)c1cc2c(cc1NC(=O)CN1CCN(C(=O)c3cccnc3)CC1)OCCO2` [compound 326], 40 nM. As to `CC(=O)c1cc2c(cc1NC(=O)CN1CCN(C(=O)c3ccncc3)CC1)OCCO2` [compound 327], the IC50 amounted to 70 nM.

On to `CC(=O)c1cc2c(cc1NC(=O)CN1CCN(C(=O)c3ncn[nH]3)CC1)OCCO2` [compound 328], for which the IC50 worked out at 60 nM.

With `CC(=O)c1cc2c(cc1NC(=O)CN1CCN(C(=O)c3cnn[nH]3)CC1)OCCO2` [compound 329], the IC50 amounted to 50 nM. Turning to `CC(=O)c1cc2c(cc1NC(=O)CN1CCN(C(=O)c3ccn[nH]3)CC1)OCCO2` [compound 330], the IC50 came out at 90 nM. Under `CC(=O)c1cc2c(cc1NC(=O)CN1CCN(C(=O)c3c[nH]c(C)n3)CC1)OCCO2` [compound 331] stands 200 nM; under `CC(=O)c1cc2c(cc1NC(=O)CN1CCN(C(=O)c3nc(C)c[nH]3)CC1)OCCO2` [compound 332], 200 nM. Under `CC(=O)c1cc2c(cc1NC(=O)CN1CCN(C(=O)c3ccc(C)o3)CC1)OCCO2` [compound 333] stands 80 nM; under `CC(=O)c1cc2c(cc1NC(=O)CN1CCN(C(=O)Cc3ccco3)CC1)OCCO2` [compound 334], 50 nM; under `CC(=O)c1cc2c(cc1NC(=O)CN1CCN(C(=O)[C@H]3CCC(=O)O3)CC1)OCCO2` [compound 335], 50 nM. Under `CC(=O)c1cc2c(cc1NC(=O)CN1CCN(C(C)=O)CC1)OCCO2` [compound 336] stands 50 nM; under `CC(=O)c1cc2c(cc1NC(=O)C(C)N1CCN(C(C)=O)CC1)OCCO2` (centres unmarked) [compound 337], 60 nM; under `COCC(=O)N1CCN(CC(=O)Nc2cc3c(cc2C(C)=O)OCCO3)CC1` [compound 338], 60 nM.

On to `COCCOCC(=O)N1CCN(CC(=O)Nc2cc3c(cc2C(C)=O)OCCO3)CC1` [compound 339], for which the IC50 is 80 nM. For `CC(=O)c1cc2c(cc1NC(=O)CN1CCN(C(=O)C3CCCO3)CC1)OCCO2` (centres unmarked) [compound 340] the value was 90 nM; for `CC(=O)c1cc2c(cc1NC(=O)CN1CCN(C(=O)[C@@H]3CCCO3)CC1)OCCO2` [compound 341], 1800 nM. Under `CC(=O)c1cc2c(cc1NC(=O)CN1CCN(C(=O)[C@H]3CCCO3)CC1)OCCO2` [compound 342] stands 70 nM; under `CC(=O)c1cc2c(cc1NC(=O)CN1CCN(C(=O)C3CCCCO3)CC1)OCCO2` (centres unmarked) [compound 343], 30 nM; under `CC(=O)c1cc2c(cc1NC(=O)CN1CCN(C(=O)CC3CCOC3)CC1)OCCO2` (centres unmarked) [compound 344], 50 nM. As for `CC(=O)c1cc2c(cc1NC(=O)CN1CCN(C(=O)CN3CCCC3)CC1)OCCO2` [compound 345], the half-inhibitory concentration (IC50) is greater than 10000 nM. Turning to `COC(=O)c1cc2c(cc1NC(=O)CN1CCN(C(=O)c3cn(C)nn3)CC1)OCO2` [compound 346], the IC50 came out at 23 nM. Under `COCc1ccc(C(=O)N2CCN(CC(=O)Nc3cc4c(cc3C(=O)OC)OCO4)CC2)o1` [compound 347] stands 83 nM; under `COC(=O)c1cc2c(cc1NC(=O)CN1CCN(C(C)=O)CC1)OCO2` [compound 348], 166 nM; under `CCCC(=O)N1CCN(CC(=O)Nc2cc3c(cc2C(=O)OC)OCO3)CC1` [compound 349], 244 nM. Under `COC(=O)c1cc2c(cc1NC(=O)CN1CCN(C(=O)C3CCCO3)CC1)OCO2` (centres unmarked) [compound 350] stands 299 nM; under `COC(=O)c1cc2c(cc1NC(=O)CN1CCN(C(=O)CC3CCCO3)CC1)OCO2` (centres unmarked) [compound 351], 439 nM. Under `COC(=O)c1cc2c(cc1NC(=O)CN1CCN(C(=O)CN3CCOCC3)CC1)OCO2` [compound 352] stands 740 nM; under `COC(=O)c1cc2c(cc1NC(=O)CN1CCN(C(C)=O)CC1)CCCC2` [compound 353], 2100 nM.

Consider `COc1cc2c(cc1NC(=O)CN1CCN(C(=O)C3CCCO3)CC1)CCC2` (centres unmarked) [compound 354], for which the IC50 is 1900 nM. Under `COc1cc2c(cc1NC(=O)CN1CCN(C(C)=O)CC1)CCC2` [compound 355] stands 2500 nM; under `COCc1cccc(C(=O)N2CCN(CC(=O)Nc3cc4c(cc3OC)OCO4)CC2)c1` [compound 356], 156 nM; under `COCc1ccc(C(=O)N2CCN(CC(=O)Nc3cc4c(cc3OC)OCO4)CC2)s1` [compound 357], 208 nM.

As to `COCc1ccc(C(=O)N2CCN(CC(=O)Nc3cc4c(cc3OC)OCO4)CC2)cc1` [compound 358], the IC50 was determined as 148 nM. Under `COCc1nc(C(=O)N2CCN(CC(=O)Nc3cc4c(cc3OC)OCO4)CC2)cs1` [compound 359] stands 261 nM; under `COc1cc2c(cc1NC(=O)CN1CCN(C(=O)c3cn(C)nn3)CC1)OCO2` [compound 360], 735 nM.

For orientation: IC50 means the concentration at which inhibition is half-maximal.
